Assay results from ChEMBL document CHEMBL2375306, “Antimicrobial peptides containing unnatural amino acid exhibit potent bactericidal activity against ESKAPE pathogens” (Bioorg Med Chem, 2013).
Values after ≈ are worked out from the molar mass of the structure shown. Square brackets hold non-standard residues; d marks the D form. Peptide text beside a SMILES is read from it. * marks the point of attachment. ξ: configuration not given here. Pro(3ξ,4ξ-(CH2)4) = O=C(O)[C@H]1NCC2CCCCC21; Pro(3,4-benzo) = O=C(O)[C@H]1NCc2ccccc21; Tic = O=C(O)[C@@H]1Cc2ccccc2CN1; X1 = CC(=O)NC(=O)[C@H](CN)N*; ξE = NC(CCC(=O)O)C(=O)O; Dap = NC[C@H](N)C(=O)O; ξL = CC(C)CC(N)C(=O)O

Tests used:
Type in all cases: functional
Enterococcus faecium = test: Antibacterial activity against Enterococcus faecium MMC4 after 24 hrs by broth microdilution method; settings: MMC4, 24 h
Klebsiella aerogenes = test: Antibacterial activity against Enterobacter aerogenes after 24 hrs by broth microdilution method
Pseudomonas aeruginosa = test: Antibacterial activity against Pseudomonas aeruginosa PAO1 after 24 hrs by broth microdilution method; settings: PAO1, 24 h
Klebsiella pneumoniae = test: Antibacterial activity against Klebsiella pneumoniae BAMS clinical isolate 07-18 after 24 hrs by broth microdilution method; settings: BAMS clinical isolate 07-18, 24 h
Acinetobacter baumannii = test: Antibacterial activity against Acinetobacter baumannii WRAIR clinical isolate 13 after 24 hrs by broth microdilution method; settings: WRAIR clinical isolate 13, 24 h
Staphylococcus aureus = test: Antibacterial activity against methicillin-sensitive Staphylococcus aureus UAMS-1 after 24 hrs by broth microdilution method; settings: UAMS-1, 24 h

| MIC (Enterococcus faecium) [µg/mL] | MIC (Klebsiella aerogenes) [µg/mL] | MIC (Pseudomonas aeruginosa) [µg/mL] | MIC (Klebsiella pneumoniae) [µg/mL] | MIC (Acinetobacter baumannii) [µg/mL] | MIC (Staphylococcus aureus) [µg/mL] | SMILES | MBC (Enterococcus faecium) [µg/mL] | MBC (Klebsiella aerogenes) [µg/mL] | MBC (Pseudomonas aeruginosa) [µg/mL] | MBC (Klebsiella pneumoniae) [µg/mL] | MBC (Acinetobacter baumannii) [µg/mL] | MBC (Staphylococcus aureus) [µg/mL] |
| --- | --- | --- | --- | --- | --- | --- | --- | --- | --- | --- | --- | --- |
| 50 (≈ 22.4 µM) | 50 (≈ 22.4 µM) | 25 (≈ 11.2 µM) | 12.5 (≈ 5.6 µM) | 12.5 (≈ 5.6 µM) | > 100 | CC(=O)NCC(=O)N[C@@H](Cc1ccccc1)C(=O)N1Cc2ccccc2C[C@H]1C(=O)N1CC2CCCCC2[C@H]1C(=O)NCC(=O)N[C@@H](CN)C(=O)N1Cc2ccccc2C[C@H]1C(=O)N1CC2CCCCC2[C@H]1C(=O)NCC(=O)N[C@@H](Cc1ccccc1)C(=O)N1Cc2ccccc2C[C@H]1C(=O)N1CC2CCCCC2[C@H]1C(=O)NCC(=O)N[C@@H](CN)C(=O)N1Cc2ccccc2C[C@H]1C(=O)N[C@@H](CN)C(=O)N[C@@H](CN)C(=O)N[C@@H](CN)C(=O)N[C@@H](CN)C(=O)NC(C)=O (stereo partly drawn) (Ac-GF[Tic][Pro(3ξ,4ξ-(CH2)4)]G[Dap][Tic][Pro(3ξ,4ξ-(CH2)4)]GF[Tic][Pro(3ξ,4ξ-(CH2)4)]G[Dap][Tic][Dap][Dap][Dap]-X1) | 100 (≈ 44.8 µM) | 50 (≈ 22.4 µM) | 25 (≈ 11.2 µM) | 25 (≈ 11.2 µM) | 12.5 (≈ 5.6 µM) | 100 (≈ 44.8 µM) |
| 6.25 (≈ 1.74 µM) | 50 (≈ 13.9 µM) | 50 (≈ 13.9 µM) | 50 (≈ 13.9 µM) | 12.5 (≈ 3.47 µM) | 50 (≈ 13.9 µM) | CC(C)C[C@H](NC(=O)[C@@H](N)CCCCN)C(=O)N1Cc2ccccc2C[C@H]1C(=O)N1CC2CCCCC2[C@H]1C(=O)NCC(=O)N[C@@H](CCCCN)C(=O)N1Cc2ccccc2C[C@H]1C(=O)N1CC2CCCCC2[C@H]1C(=O)NCC(=O)N[C@@H](Cc1ccccc1)C(=O)N1Cc2ccccc2C[C@H]1C(=O)N1CC2CCCCC2[C@H]1C(=O)NCC(=O)N[C@@H](CCCCN)C(=O)N1Cc2ccccc2C[C@H]1C(=O)N1CC2CCCCC2[C@H]1C(=O)NCC(=O)N[C@@H](Cc1ccccc1)C(=O)N1Cc2ccccc2C[C@H]1C(=O)N1CC2CCCCC2[C@H]1C(=O)NCC(=O)N[C@@H](CCCCN)C(=O)N1Cc2ccccc2C[C@H]1C(=O)N1CC2CCCCC2[C@H]1C(=O)N[C@@H](CCCCN)C(=O)N[C@@H](CCCCN)C(=O)N[C@@H](CCCCN)C(=O)N[C@@H](CCCCN)C(N)=O (stereo partly drawn) (H-KL[Tic][Pro(3ξ,4ξ-(CH2)4)]GK[Tic][Pro(3ξ,4ξ-(CH2)4)]GF[Tic][Pro(3ξ,4ξ-(CH2)4)]GK[Tic][Pro(3ξ,4ξ-(CH2)4)]GF[Tic][Pro(3ξ,4ξ-(CH2)4)]GK[Tic][Pro(3ξ,4ξ-(CH2)4)]KKKK-NH2) | 25 (≈ 6.95 µM) | 50 (≈ 13.9 µM) | 50 (≈ 13.9 µM) | 50 (≈ 13.9 µM) | 12.5 (≈ 3.47 µM) | 50 (≈ 13.9 µM) |
| > 100 | > 100 | > 100 | > 100 | > 100 | > 100 | CSCC[C@H](NC(=O)C(CC(C)C)NC(=O)[C@H](CCC(=O)O)NC(=O)[C@@H]1C2CCCCC2CN1C(=O)[C@@H]1Cc2ccccc2CN1C(=O)[C@H](CCCCN)NC(=O)CNC(=O)[C@H](CC(C)C)NC(=O)CNC(=O)[C@@H]1C2CCCCC2CN1C(=O)[C@@H]1Cc2ccccc2CN1C(=O)C(CCC(=O)O)NC(=O)[C@H](CCCCN)NC(=O)CNC(=O)[C@H](CC(C)C)NC(=O)CNC(=O)[C@@H]1C2CCCCC2CN1C(=O)[C@@H]1Cc2ccccc2CN1C(=O)[C@H](CCCCN)NC(=O)CNC(C)=O)C(=O)NCC(=O)N[C@@H](CCC(=O)O)C(=O)N[C@@H](CCCNC(=N)N)C(N)=O (stereo partly drawn) (Ac-GK[Tic][Pro(3ξ,4ξ-(CH2)4)]GLGK[ξE][Tic][Pro(3ξ,4ξ-(CH2)4)]GLGK[Tic][Pro(3ξ,4ξ-(CH2)4)]E[ξL]MGER-NH2) | > 100 | > 100 | > 100 | > 100 | > 100 | > 100 |
| 12.5 (≈ 5.21 µM) | > 100 | > 100 | > 100 | 12.5 (≈ 5.21 µM) | > 100 | CC(=O)NCC(=O)N[C@@H](Cc1ccccc1)C(=O)N1Cc2ccccc2[C@H]1C(=O)N1CC2CCCCC2[C@H]1C(=O)NCC(=O)N[C@@H](CCCCN)C(=O)N1Cc2ccccc2[C@H]1C(=O)N1CC2CCCCC2[C@H]1C(=O)NCC(=O)N[C@@H](Cc1ccccc1)C(=O)N1Cc2ccccc2[C@H]1C(=O)N1CC2CCCCC2[C@H]1C(=O)NCC(=O)N[C@@H](CCCCN)C(=O)N1Cc2ccccc2C[C@H]1C(=O)N[C@@H](CCCCN)C(=O)N[C@@H](CCCCN)C(=O)N[C@@H](CCCCN)C(=O)N[C@@H](CCCCN)C(N)=O (stereo partly drawn) (Ac-GF[Pro(3,4-benzo)][Pro(3ξ,4ξ-(CH2)4)]GK[Pro(3,4-benzo)][Pro(3ξ,4ξ-(CH2)4)]GF[Pro(3,4-benzo)][Pro(3ξ,4ξ-(CH2)4)]GK[Tic]KKKK-NH2) | 100 (≈ 41.7 µM) | > 100 | > 100 | > 100 | 12.5 (≈ 5.21 µM) | > 100 |
